Literature values as cited in publication PMC4148150 (Journal of Medicinal Chemistry, 2014).

Settings: mice, oral dosing

Compound	PK-AUC [nM·h]
CC(=O)N1CCC(NC(=O)NC23CC4CC(CC(C4)C2)C3)CC1 [APAU, 1-(1-acetypiperidin-4-yl)-3-adamantanylurea]	183
CS(=O)(=O)N1CCC(NC(=O)Nc2ccc(OC(F)(F)F)cc2)CC1 [TUPS, 1-(1-methylsulfonyl-piperidin-4-yl)-3-(4-trifluoromethoxyphenyl)-urea]	5300
